We go through eight molecules from patent US10577362B2, “Substituted 2, 4-diamino-quinoline derivatives for use in the treatment of proliferative diseases” (GENOSCIENCE PHARMA, priority 2016, dated 2020).

In experiment [1] the test system is MOLM-14 (acute myeloid leukemia) cell line. In words: CellTiter-Glo luminescent cell viability assay, MOLM-14. It is filed as cell-based, human. The note with it: Homo sapiens; for viability at 4 µM: MOLM-14, compound at 4 μM; for viability at 4 µM / viability at 10 µM: 72 h; for viability at 10 µM: MOLM-14, compound at 10 μM; for EC50: MOLM-14 cell line, 72 h incubation, CellTiter-Glo, read-out: EC50, growth inhibition of MOLM-14. In outline:
(§1)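 Each line grew in its own medium (DMEM low glucose for HepG2, DMEM for Huh7 and PANC-1, MEM alpha for MOLM-14) plus 10% FBS. Three-day compound treatment preceded luminescence reading; EC50 reflects 50% loss of diluent-control signal.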

For experiment [2], the system named is A375 (malignant melanoma) cell line. The experiment is described as follows: CellTiter-Glo luminescent cell viability assay, A375. The format is cell-based, human. The note with it: Homo sapiens, A-375; for viability at 4 µM: A375, compound at 4 μM; for viability at 4 µM / viability at 10 µM: 72 h; for viability at 10 µM: A375, compound at 10 μM; for EC50: A375 cell line, 72 h incubation, CellTiter-Glo, read-out: EC50, growth inhibition of A375. The essentials: (§2)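 Adherent lines plated overnight, MOLM-14 (suspension) 1 h before dosing, in medium with 10% FBS at 37 °C, 5% CO2. Compounds added at varying concentrations for 72 h; CellTiter-Glo luminescence read, EC50 as dose reducing signal to 50% of diluent-treated cells, at least duplicate points.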

For experiment [3], the system named is HepG2 (hepatocellular carcinoma) cell line. In words: CellTiter-Glo luminescent cell viability assay, HepG2. It is filed as cell-based, human. Conditions: Homo sapiens; for viability at 4 µM / viability at 10 µM: HepG2, HepG, 72 h; for viability at 4 µM: compound at 4 μM; for viability at 10 µM: compound at 10 μM; for EC50: HepG2 cell line, 72 h incubation, CellTiter-Glo, read-out: EC50, growth inhibition of HepG2. In outline:
as §1

Experiment [4] has as its system PANC-1 (prancreatic carcinoma) cell line. The experiment is described as follows: CellTiter-Glo luminescent cell viability assay, PANC-1. The format is cell-based. Conditions: Homo sapiens; for viability at 4 µM: PANC-1, 4 μM; for viability at 4 µM / viability at 10 µM: 72 h, % of signal of diluent-treated cultures; for viability at 10 µM: PANC-1, 10 μM; for EC50: PANC-1 cell line, 72 h incubation, CellTiter-Glo, read-out: EC50 (growth inhibition assay of PANC-1 cell line). The essentials: as §1

For experiment [5], the system named is 786-O (renal adenocarcinoma) cell line. In words: CellTiter-Glo luminescent cell viability assay, 786-O. The note with it: Homo sapiens, 786-0; for EC50: 786-O cell line, 72 h incubation, CellTiter-Glo, read-out: EC50, growth inhibition of 786-O; for viability at 4 µM / viability at 10 µM: 786-O, 72 h; for viability at 4 µM: compound at 4 μM; for viability at 10 µM: compound at 10 μM. The format is cell-based, human. In outline:
as §2

The test system of experiment [6] is Huh7 (hepatocellular carcinoma) cell line. The experiment is described as follows: CellTiter-Glo luminescent cell viability assay, Huh7. The note with it: Homo sapiens, Huh-7; for viability at 4 µM: Huh7, compound at 4 μM; for viability at 4 µM / viability at 10 µM: 72 h; for viability at 10 µM: Huh7, compound at 10 μM; for EC50: Huh7 cell line, 72 h incubation, CellTiter-Glo, read-out: EC50, growth inhibition of Huh7. It is filed as cell-based, human. In outline:
as §1

The subject of experiment [7] is HCT-116 (colorectal carcinoma) cell line. In words: CellTiter-Glo luminescent cell viability assay, HCT-116. It is filed as cell-based, human. The note with it: Homo sapiens; for viability at 4 µM: HCT-116, compound at 4 μM; for viability at 4 µM / viability at 10 µM: 72 h; for viability at 10 µM: HCT-116, compound at 10 μM; for EC50: HCT-116 cell line, 72 h incubation, CellTiter-Glo, read-out: EC50, growth inhibition of HCT-116. The essentials:
as §2

For the molecule `COc1ccc(Nc2nc3ccccc3c(N3CCC(NC(C)(C)C)CC3)c2C#N)cc1` [Compound 3252CN, 2-(4-methoxyphenylamino)-3-cyano-4-[4-(tert-butylamino)piperidin-1-yl]quinoline], the viability at 4 µM in experiment [1] was found to be 80.2%; in experiment [2] it was 20%; in experiment [3], 68.4%; in experiment [4] it was 94.7%; in experiment [5] it was 74.2%; in experiment [6] it was 80.6%. For the same molecule, in experiment [7], the viability at 4 µM amounted to 2.5%. Further, the viability at 10 µM in experiment [1] was 0.7%; in experiment [2], 0.2%; in experiment [3] it was 0.3%; in experiment [4] it was 47.9%; in experiment [5], 0.3%; in experiment [6], 2.9%. In experiment [7], the viability at 10 µM amounted to 0.2%. Besides, the EC50 in experiment [1] was in the range of 5 to 10 µM; in experiment [2] it was 0.5 to 5 µM; in experiment [3] it was 5 to 10 µM; in experiment [4] it was 5 to 10 µM; in experiment [5] it was 0.5 to 5 µM; in experiment [6], 5 to 10 µM. Besides, the EC50 in experiment [7] fell in the range of 0.5 to 5 µM.
As for `CNC1CCN(c2c(C#N)c(NCc3ccc(Cl)cc3)nc3ccccc23)C1` (stereo not shown) [Compound 3192CN, 2-(4-chloro-benzylamino)-3-cyano-4-[3-(methylamino)pyrrolidin-1-y]quinoline], the viability at 4 µM in experiment [1] came out at 0.6%; in experiment [2], 104%; in experiment [3], 59.5%; in experiment [4] it was 77.1%; in experiment [5], 0.4%; in experiment [6], 78%. The viability at 4 µM in experiment [7] was determined as 57.3%. The viability at 10 µM in experiment [1] turned out to be 0.3%; in experiment [2], 0.4%; in experiment [3], 0.4%; in experiment [4], 1.5%; in experiment [5], 0.2%; in experiment [6], 0.4%. In addition, the viability at 10 µM in experiment [7] was found to be 0.2%. The EC50 in experiment [1] was in the range of 5 to 10 µM; in experiment [2], 0.5 to 5 µM; in experiment [3], 0.5 to 5 µM; in experiment [4], 5 to 10 µM; in experiment [5] it was 0.5 to 5 µM; in experiment [6] it was 0.5 to 5 µM. The half-maximal effective concentration (EC50) in experiment [7] lay in the range of 0.5 to 5 µM.
As for `N#Cc1c(NCc2ccc(Cl)cc2)nc2ccccc2c1N1CCC(N)CC1` [Compound 3170CN, 2-(4-chlorobenzylamino)-3-cyano-4-(4-aminopiperidin-1-yl)quinoline], the viability at 4 µM in experiment [1] is 84.2%; in experiment [2], 0.5%; in experiment [3] it was 0.6%; in experiment [4], 89.6%; in experiment [5], 36.5%; in experiment [6] it was 79.4%. Besides, the viability at 4 µM in experiment [7] came out at 0.7%. For the same molecule, the viability at 10 µM in experiment [1] turned out to be 0.4%; in experiment [2], 0.3%; in experiment [3], 0.3%; in experiment [4], 0.6%; in experiment [5] it was 0.4%; in experiment [6] it was 0.4%. The viability at 10 µM in experiment [7] was determined as 0.2%. The EC50 in experiment [1] fell in the range of 0.5 to 5 µM; in experiment [2], 0.5 to 5 µM; in experiment [3], 0.5 to 5 µM; in experiment [4], 5 to 10 µM; in experiment [5] it was 0.5 to 5 µM; in experiment [6] it was 0.5 to 5 µM. In experiment [7], the EC50 was in the range of 0.5 to 5 µM.
For the molecule `CC(C)(C)NC1CCN(c2c(C#N)c(Nc3cnccn3)nc3ccccc23)CC1` [Compound 3284CN, 2-(pyrazin-2-ylamino)-3-cyano-4-[4-(tertbutylamino)piperidin-1-yl]quinoline], the viability at 4 µM is 102% in experiment [1]; 88.3% in experiment [2]; 90% in experiment [3]; 96.3% in experiment [4]; 89.8% in experiment [5]; 95.3% in experiment [6]. Besides, the viability at 4 µM in experiment [7] stood at 83.4%. The viability at 10 µM in experiment [1] worked out at 78.3%; in experiment [2] it was 64.9%; in experiment [3] it was 68.4%; in experiment [4], 69.4%; in experiment [5] it was 61.9%; in experiment [6], 79.2%. For the same molecule, the viability at 10 µM in experiment [7] was determined as 27.4%.
In the case of `CN(C)C1CCN(c2c(C#N)c(NCc3ccc(Cl)cc3)nc3ccccc23)C1` (stereo not shown) [Compound 3202CN, 2-(4-chloro-benzylamino)-3-cyano-4-[3-(dimethylamino)pyrrolidin-1-yl]quinoline], the viability at 4 µM stood at 98.7% in experiment [1]; 84.5% in experiment [2]; 104% in experiment [3]; 96.1% in experiment [4]; 92.9% in experiment [5]; 91.1% in experiment [6]. The viability at 4 µM in experiment [7] was determined as 93.7%. Further, the viability at 10 µM in experiment [1] was determined as 82.6%; in experiment [2], 70.5%; in experiment [3], 81%; in experiment [4] it was 81.5%; in experiment [5], 74.7%; in experiment [6], 61.5%. In addition, the viability at 10 µM in experiment [7] was 62.4%.
For `CCN(CC)C1CCN(c2c(C#N)c(NCc3ccc(Cl)cc3)nc3ccccc23)C1` (stereo not shown) [Compound 126CN, 2-(4-chloro-benzylamino)-3-cyano-4-[3-(diethylamino)pyrrolidin-1-yl]quinoline], the viability at 4 µM in experiment [1] is 105%; in experiment [2], 92.5%; in experiment [3], 104%; in experiment [4], 106%; in experiment [5], 91.2%; in experiment [6], 98.9%. For the same molecule, the viability at 4 µM in experiment [7] was found to be 97%. Besides, the viability at 10 µM in experiment [1] came to 99.6%; in experiment [2], 89.9%; in experiment [3], 102%; in experiment [4], 103%; in experiment [5] it was 87.6%; in experiment [6], 96.1%. The viability at 10 µM in experiment [7] amounted to 93.3%.
`N#Cc1c(NCc2ccc(Cl)cc2)nc2ccccc2c1N1CCC(Oc2ccccc2)CC1` [Compound 2940CN, 2-(4-chlorobenzylamino)-3-cyano-4-(4-phenoxypiperidin-1-yl)quinoline]: the viability at 4 µM in experiment [1] was 102%; in experiment [2] it was 104%; in experiment [3], 89.7%; in experiment [4] it was 103%; in experiment [5], 97.1%; in experiment [6], 97.3%. Further, in experiment [7], the viability at 4 µM amounted to 92.9%. Besides, the viability at 10 µM was determined as 89.1% in experiment [1]; 98.3% in experiment [2]; 79.4% in experiment [3]; 102% in experiment [4]; 91.7% in experiment [5]; 88.9% in experiment [6]. Besides, in experiment [7], the viability at 10 µM was 82.9%.
As to `CN1CCC(NC2CCN(c3c(C#N)c(NCc4ccc(Cl)cc4)nc4ccccc34)CC2)CC1` [Compound 3182CN, 2-(4-chlorobenzylamino)-3-cyano-4-{4-[(1-methylpiperidin-4-yl)amino]piperidin-1-yl}quinoline], the viability at 4 µM in experiment [1] was found to be 0.6%; in experiment [2], 0.5%; in experiment [3], 0.5%; in experiment [4], 0.8%; in experiment [5], 0.6%; in experiment [6] it was 0.6%. Further, the viability at 4 µM in experiment [7] is 0.5%. The viability at 10 µM is 0.4% in experiment [1]; 0.4% in experiment [2]; 0.3% in experiment [3]; 0.5% in experiment [4]; 0.4% in experiment [5]; 0.4% in experiment [6]. For the same molecule, the viability at 10 µM in experiment [7] came out at 0.3%. The EC50 in experiment [1] lay in the range of 0.5 to 5 µM; in experiment [2], 0.5 to 5 µM; in experiment [3] it was 0.5 to 5 µM; in experiment [5], 0.05 to 0.5 µM; in experiment [6], 0.5 to 5 µM; in experiment [7], 0.5 to 5 µM.
